Assay results: patent EP0912534B1, “MUSCARINIC ANTAGONISTS” (SCHERING CORPORATION, priority 1996, dated 1998)
Values belong to the molecule of their own block, whether it stands above or below them.

Key:
[1] = target: T1, cloned human m2 muscarinic receptor (Homo sapiens, UniProt P08172); experiment: Muscarinic binding activity (3H-QNB displacement), m2; settings: membranes of transfected CHO cells, read-out: Ki m2
T1 sequence (P08172 1-466): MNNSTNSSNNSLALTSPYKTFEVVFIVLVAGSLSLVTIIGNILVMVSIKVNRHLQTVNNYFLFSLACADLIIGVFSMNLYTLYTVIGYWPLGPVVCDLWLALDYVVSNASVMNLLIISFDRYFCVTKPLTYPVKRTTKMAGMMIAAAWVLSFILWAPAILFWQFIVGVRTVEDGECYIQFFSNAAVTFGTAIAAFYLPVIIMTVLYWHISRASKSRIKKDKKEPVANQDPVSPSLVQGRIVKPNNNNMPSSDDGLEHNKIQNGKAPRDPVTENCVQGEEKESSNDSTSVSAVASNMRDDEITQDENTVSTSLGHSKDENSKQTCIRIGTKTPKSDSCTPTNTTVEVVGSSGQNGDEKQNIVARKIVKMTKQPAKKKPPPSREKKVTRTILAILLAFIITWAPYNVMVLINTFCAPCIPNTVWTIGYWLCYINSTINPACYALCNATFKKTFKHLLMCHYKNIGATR

[2] = target: T2, cloned human m4 muscarinic receptor (Homo sapiens, UniProt P08173); experiment: Muscarinic binding activity (3H-QNB displacement), m4; settings: membranes of transfected CHO cells, read-out: Ki m4
T2 sequence (P08173 1-479): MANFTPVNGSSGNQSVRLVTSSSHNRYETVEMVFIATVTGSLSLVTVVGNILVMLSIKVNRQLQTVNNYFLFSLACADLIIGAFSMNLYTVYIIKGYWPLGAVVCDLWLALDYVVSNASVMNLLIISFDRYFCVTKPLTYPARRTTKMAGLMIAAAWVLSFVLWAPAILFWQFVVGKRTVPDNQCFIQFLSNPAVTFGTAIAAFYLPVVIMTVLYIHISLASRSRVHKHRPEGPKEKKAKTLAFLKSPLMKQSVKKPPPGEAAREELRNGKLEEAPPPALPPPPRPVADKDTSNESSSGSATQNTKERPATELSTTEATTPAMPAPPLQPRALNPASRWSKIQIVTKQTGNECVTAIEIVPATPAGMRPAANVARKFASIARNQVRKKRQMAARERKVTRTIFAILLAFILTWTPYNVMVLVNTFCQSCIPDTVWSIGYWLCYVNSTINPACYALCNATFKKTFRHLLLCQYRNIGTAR

[3] = target: T3, cloned human m1 muscarinic receptor (Homo sapiens, UniProt P11229); experiment: Muscarinic binding activity (3H-QNB displacement), m1; settings: membranes of transfected CHO cells, read-out: Ki m1
T3 sequence (P11229 1-460): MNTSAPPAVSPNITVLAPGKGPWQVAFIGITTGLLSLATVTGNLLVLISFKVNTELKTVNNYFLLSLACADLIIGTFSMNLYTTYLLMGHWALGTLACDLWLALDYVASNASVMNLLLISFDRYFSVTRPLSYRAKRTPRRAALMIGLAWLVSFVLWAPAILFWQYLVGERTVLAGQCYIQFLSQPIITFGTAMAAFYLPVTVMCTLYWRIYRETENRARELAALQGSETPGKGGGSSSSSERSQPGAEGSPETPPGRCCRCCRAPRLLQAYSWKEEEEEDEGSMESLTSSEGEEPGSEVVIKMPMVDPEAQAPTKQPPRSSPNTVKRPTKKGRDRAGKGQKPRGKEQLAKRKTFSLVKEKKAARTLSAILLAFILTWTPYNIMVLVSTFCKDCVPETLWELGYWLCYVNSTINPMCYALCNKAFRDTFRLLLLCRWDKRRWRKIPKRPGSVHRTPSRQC

SMILES: CC(=O)Nc1ccc(Oc2ccc3c(c2)OCCC3N2CCN(C3CCCCC3)CC2)cc1 (centres unmarked) [Compound 4]
Ki [1]: 224 nM
Ki [2]: > 200 nM
Ki [3]: 223 nM

SMILES: O=[N+]([O-])c1ccc(Oc2ccc3c(c2)CCCC3N2CCN(C3CCCCC3)CC2)cc1 (centres unmarked) [Compound 6]
Ki [1]: 96 nM
Ki [2]: 77 nM
Ki [3]: 633 nM

SMILES: Nc1ccc(Oc2ccc3c(c2)OCCC3N2CCN(C3CCCCC3)CC2)cc1 (centres unmarked) [Compound 3]
Ki [1]: 130 nM
Ki [2]: 37 nM
Ki [3]: 82 nM

SMILES: c1cnc(Oc2ccc3c(c2)CCC3N2CCN(C3CCCCC3)CC2)nc1 (single isomer, unassigned) [Compound 10]
Ki [1]: 11.5 nM
Ki [2]: 17 nM
Ki [3]: 151 nM

SMILES: O=[N+]([O-])c1ccc(Oc2ccc3c(c2)OCCC3N2CCN(C3CCCCC3)CC2)cc1 (centres unmarked) [Compound 2, 1-Cyclohexyl-4-[7-[(4-nitrophenyl)oxy]-chroman-4-yl]-piperazine]
Ki [1]: 27 nM
Ki [3]: 42 nM

SMILES: c1cnc(Oc2ccc3c(c2)CC(CC2CCCCC2)C3N2CCN(C3CCCCC3)CC2)nc1 (centres unmarked) [Compound 12, 2-[[1-(4-Cyclohexyl-1-piperazinyl)-2-(cyclohexylmethyl)-2,3-dihydro-1H-inden-5-yl]oxy]pyrimidine]
Ki [1]: 92 nM
Ki [3]: 173 nM

Second part, the molecule after the results:

Ki [1]: 17 nM
Ki [2]: 33 nM
Ki [3]: 67 nM
SMILES: COc1ccc(S(=O)(=O)c2ccc3c(c2)CCC3N2CCC(N3CCCCC3)CC2)cc1 (centres unmarked) [Compound 13]

Ki [1]: 79 nM
Ki [2]: 106 nM
Ki [3]: 356 nM
SMILES: O=S(=O)(c1ccccc1)c1ccc2c(c1)CCC2N1CCN(CCO)CC1 (centres unmarked) [Compound 1]

Ki [1]: 26 nM
Ki [2]: 21 nM
Ki [3]: 105 nM
SMILES: Nc1ccc(Oc2ccc3c(c2)CCCC3N2CCN(C3CCCCC3)CC2)cc1 (centres unmarked) [Compound 7]

Ki [1]: 88 nM
Ki [3]: 314 nM
SMILES: c1cnc(Oc2ccc3c(c2)CCC3N2CCN(C3CCCCC3)CC2)nc1 (single isomer, unassigned) [Compound 11]

Ki [1]: 35 nM
Ki [3]: 265 nM
SMILES: c1cnc(Oc2ccc3c(c2)CCC3N2CCN(C3CCCCC3)CC2)nc1 (centres unmarked) [Compound 9]

Ki [1]: 21 nM
Ki [2]: 35 nM
Ki [3]: 160 nM
SMILES: c1cnc(Oc2ccc3c(c2)CCCC3N2CCN(C3CCCCC3)CC2)nc1 (centres unmarked) [Compound 5, 4-Cyclohexyl-1-piperazinyl-[6-[(2-pyrimidinyl)oxy]]-1,2,3,4-tetrahydronaphthalene]
